According to patent US20070112018A1, “Treatment of peripheral arterial occlusive disease” (priority 2005, published 2007):

How the values were obtained:
[1] = Phase 1 Study ABI-1648-009, food effect on PK of single 25-mg oral dose
[2] = Phase 1 Study ABI-1648-006, multiple oral dose pharmacokinetics; conditions: for Tmax / AUC / Cmax / half-life: human, plasma; for AUC0-Tau/Dose Mean / Cmax/Dose Mean: normalized to 1 mg/kg
Protocol: Study ABI-1648-006 was conducted to evaluate the PK of single and multiple oral doses of 2.5, 5, 12.5, and 25 mg administered to healthy male and female volunteers.

[3] = 25 mg cumulative doses over one week, adverse events by regimen; assay type: in vivo, human
Protocol: Different dosing regimens of rifalazil that achieve 25-mg cumulative doses in 1 week also provide relevant clinical information on the safety of 25 mg administered as a single dose once per week.
For a cumulative dose of 25 mg, the overall incidence of AEs was somewhat lower when rifalazil was administered as 5 mg QD for 5 days, compared with a single dose of 25 mg (75%). Similarly, the overall incidence of drug-related AEs was lower when 25 mg was administered as a 5 mg for 5 days (63%), vs. 12.5 mg as 2 doses (separated by 72 hours) (70%), and as a single dose of 25 mg (75%).

[4] = Degradation to 25-desacetyl derivative under acidic and basic conditions; assay type: physicochemical
From the text: Rifalazil degrades to a 25-desacetyl derivative under both acidic and basic conditions. Typical of ester hydrolysis, the degradation in highly alkaline solutions is rapid while at an acidic pH, e.g., pH 1, the degradation at room temperature is slower, approximately 6% in one hour.

[5] = Phase 1 single-dose study (2.5, 5, 12.5, 25 mg), adverse events; assay type: in vivo, human
Protocol: Several Phase 1 studies of rifalazil administration have been carried out using 25 mg single doses. In one such study, sixteen patients received single doses of 25 mg. Overall, 75% of patients (12/16) reported treatment-emergent adverse events (AEs). […] However, for all dose groups, the incidence of AEs was higher for females than for males, and this difference was also observed in the placebo group. At 25 mg, […] of females (31/39) and 55% of males (16/29) reported treatment-emergent AEs. The AEs with an incidence greater than or equal to 10% were: […]

[6] = Phase 1 pharmacokinetic analyses by gender, single or multiple doses 2.5-50 mg; assay type: in vivo, human
Protocol: There were no significant differences between males and females for AUC0-∞ when data were normalized to 1 mg/kg following single doses of 2.5 to 50 mg rifalazil (see FIG. 3 and FIG. 4).
The Vdβ/F was large indicating extensive distribution in the body. […] The mean minimum plasma concentrations (Cmin) of rifalazil over time during 5 days of dosing with 2.5 and 5 mg rifalazil increased from Days 2-6 in both males and females at both dose levels.

What does the source list for CO[C@H]1/C=C/O[C@@]2(C)Oc3c(C)c(O)c4c(=O)c(c5oc6cc(N7CCN(CC(C)C)CC7)cc(O)c6nc-5c4c3C2=O)NC(=O)/C(C)=C\C=C\[C@H](C)[C@H](O)[C@@H](C)[C@@H](O)[C@@H](C)[C@H](OC(C)=O)[C@@H]1C [rifalazil, 3′-hydroxy-5′-(4-isobutyl-1-piperazinyl) benzoxazinorifamycin]?
Tmax ([1]; male, human, plasma, oral, 25 mg): ~3 h; absorption (Cmax and AUC) fasted versus fed ([1]; overnight fast compared with 30% or 60% fat meal, single 25 mg): lower; Tmax ([2]; both, po): 4 to 6.3 h; AUC ([2]; female, oral, 2.5 mg): 98.2 ng·h/mL; Cmax ([2]; female, oral, 2.5 mg): 7 ng/mL; Tmax ([2]; female, oral, 2.5 mg): 4.3 h; half-life ([2]; female, oral, 2.5 mg): 5.84 days; AUC ([2]; female, oral, 5 mg): 197 ng·h/mL; Cmax ([2]; female, oral, 5 mg): 14.3 ng/mL; Tmax ([2]; female, oral, 5 mg): 5.3 h; half-life ([2]; female, oral, 5 mg): 7.23 days; AUC ([2]; female, oral, 12.5 mg): 339 ng·h/mL; Cmax ([2]; female, oral, 12.5 mg): 19.1 ng/mL; Tmax ([2]; female, oral, 12.5 mg): 6.3 h; half-life ([2]; female, oral, 12.5 mg): 3.6 days; half-life ([2]; female, po): 3.58 to 5.83 days; AUC0-Tau/Dose Mean ([2]; females, 2.5 mg QD × 5 days): 2540.1; Cmax/Dose Mean ([2]; females, 2.5 mg QD × 5 days): 184.1; AUC0-Tau/Dose Mean ([2]; females, 5 mg QD × 5 days): 2539.0; Cmax/Dose Mean ([2]; females, 5 mg QD × 5 days): 183.6; AUC0-Tau/Dose Mean ([2]; females, 12.5 mg × 2 doses): 1614.0; Cmax/Dose Mean ([2]; females, 12.5 mg × 2 doses): 90.6; AUC ([2]; male, oral, 2.5 mg): 178 ng·h/mL; Cmax ([2]; male, oral, 2.5 mg): 8.5 ng/mL; Tmax ([2]; male, oral, 2.5 mg): 4.3 h; half-life ([2]; male, oral, 2.5 mg): 5.6 days; AUC ([2]; male, oral, 5 mg): 261 ng·h/mL; Cmax ([2]; male, oral, 5 mg): 17.3 ng/mL; Tmax ([2]; male, oral, 5 mg): 4 h; half-life ([2]; male, oral, 5 mg): 4.94 days; AUC ([2]; male, oral, 12.5 mg): 398 ng·h/mL; Cmax ([2]; male, oral, 12.5 mg): 20.9 ng/mL; Tmax ([2]; male, oral, 12.5 mg): 6.2 h; half-life ([2]; male, oral, 12.5 mg): 5.01 days; half-life ([2]; male, po): 4.92 to 5.58 days; AUC0-Tau/Dose Mean ([2]; males, 2.5 mg QD × 5 days): 5788.5; Cmax/Dose Mean ([2]; males, 2.5 mg QD × 5 days): 279.2; AUC0-Tau/Dose Mean ([2]; males, 5 mg QD × 5 days): 4152.6; Cmax/Dose Mean ([2]; males, 5 mg QD × 5 days): 273.7; AUC0-Tau/Dose Mean ([2]; males, 12.5 mg × 2 doses): 2357.9; Cmax/Dose Mean ([2]; males, 12.5 mg × 2 doses): 124.2; incidence of flu-like symptoms ([3]; 5 mg QD for 5 days (5/15 patients)): 33%; overall incidence of drug-related AEs ([3]; 5 mg for 5 days): 63%; overall incidence of drug-related AEs ([3]; 12.5 mg as 2 doses separated by 72 hours): 70%; incidence of flu-like symptoms ([3]; 12.5 mg×2 dose regimen): 15%; incidence of flu-like symptoms ([3]; 25 mg single-dose (3/16 patients)): 19%; overall incidence of AEs ([3]; single dose of 25 mg): 75%; overall incidence of drug-related AEs ([3]; single dose of 25 mg): 75%; degradation in highly alkaline solutions ([4]; highly alkaline solutions): rapid; degradation to 25-desacetyl derivative ([4]; pH 1, room temperature, in one hour): approximately 6%; males reporting treatment-emergent AEs ([5]; at 25 mg (16/29)): 55%; females reporting treatment-emergent AEs ([5]; at 25 mg (31/39)): 88%; incidence of Bacteria in urine ([5]; single dose 25 mg): 19%; incidence of Blood present in urine ([5]; single dose 25 mg): 13%; incidence of Body temperature increased ([5]; single dose 25 mg): 25%; incidence of Headache ([5]; single dose 25 mg): 38%; incidence of Lymphocyte count decreased ([5]; single dose 25 mg): 31%; incidence of Monocyte count increased ([5]; single dose 25 mg): 13%; incidence of Nausea ([5]; single dose 25 mg): 13%; incidence of Neutrophil count increased ([5]; single dose 25 mg): 13%; incidence of Pharyngitis ([5]; single dose 25 mg): 13%; incidence of White blood cells (WBCs) in urine ([5]; single dose 25 mg): 19%; patients reporting treatment-emergent adverse events ([5]; single dose 25 mg, 16 patients): 75%; steady state ([6]; after 5 days of dosing with 2.5 and 5 mg): does not appear that steady state was reached; half-life ([6]; both sexes, human, plasma, oral, following single doses, read-out: mean elimination t1/2): 4.17 to 6.25 days; half-life ([6]; both sexes, human, plasma, oral, multiple dosing, up to 5 days, read-out: mean elimination t1/2): 3.62 to 7.25 days; half-life ([6]; both sexes, human, plasma, oral, read-out: t1/2 (converted)): ~4.17 days; Tmax ([6]; both sexes, human, plasma, oral, single or multiple doses 2.5-50 mg, males and females, read-out: mean time to maximum concentration (Tmax)): 4 to 6 h; Vdβ/F ([6]; in vivo): large; exposure (mean Cmax and AUC0-∞) as a function of dose ([6]; males and females, 2.5 to 50 mg, increase not dose proportional): increased with rifalazil dose
